Test results as given in patent publication US10457976B2, “Preparing antibodies from CHO cell cultures for conjugation” (SEATTLE GENETICS, INC., priority 2013, dated 2019).

System: QSOX1 sulfhydryl oxidase (oxidizing activity in lot DEVNKB-1)
Test: Sulfhydryl oxidizing activity of lot DEVNKB-1 with additives (ferrous oxidation xylenol orange, FOX, assay)
Assay type: biochemical, Chinese hamster
Protocol: Further to characterize the oxidizing activity in lot DEVNKB-1, the lot was tested for sulfhydryl oxidizing activity using the ferrous oxidation xylenol orange (FOX) assay. Sulfhydryl oxidases catalyze the following reaction: 2R—SH+O2→R—S—S—R+H2O2 As the reaction proceeds, oxygen is consumed and hydrogen peroxide is produced. The hydrogen peroxide by-product can be detected readily and reliably, and thus serves as a proxy for sulfhydryl oxidase activity. In the FOX assay, hydrogen peroxide oxidizes ferrous iron (Fe^2+) to produce ferric iron (Fe^3+). The […] complexes with xylenol orange to form a compound that absorbs 560 nm light. Thus, by monitoring absorption of 560 nm light (e.g., using a spectrophotometer), the amount of sulfhydryl oxidizing activity in a sample can be determined. The value of a negative control is compared to the value of the test sample by determining the difference in the 560 nm reading. If the resulting value is greater than 0.1 absorbance units, then the samples is positive for oxidizing impurity. […] Addition of both DEVNKB-1 and 1 mM Zn^2+, however, was only 0.008. […] This is consistent with the oxidizing agent having a flavin-dependent sulfhydryl oxidase domain, such as QSOX1.
Further assays were performed to see whether EDTA could reverse the Zn^2+-dependent elimination of oxidizing activity in lot DEVNKB-1. In these experiments, Zn^2+ was added to the assay buffer, either with or without EDTA. In addition, assay buffer having EDTA was evaluated. […] Addition of both Zn^2+ and additional EDTA, however, reduced the oxidizing activity by only 6%. Thus, the EDTA effectively reversed the Zn^2+-dependent inhibition of oxidizing activity. Again, this is what is expected for an oxidizing agent that has a flavin-dependent sulfhydryl oxidase domain, such as QSOX1.

[1] = Table 2, additive in assay buffer, with or without additional EDTA
[2] = Table 2, relative to assay buffer with additional EDTA (100%)

Row | Compound | Difference (absorption without minus with DEVNKB-1) [1] | % Activity [2] [%] | Difference (absorption without minus with DEVNKB-1) (Table 1, additive 1 mM, 560 nm absorption) | Difference (absorption without minus with DEVNKB-1) (Table 1, additive 1 mM, 560 nm absorption, listed as Zn^2+) | % Activity (Table 1, additive 1 mM, relative to DEVNKB-1 without additive) [%] | reduction of oxidizing activity associated with lot DEVNKB-1 (relative to assay buffer that contained additional EDTA) [%]
1 | O=C(O)CN(CCN(CC(=O)O)CC(=O)O)CC(=O)O [EDTA] | 0.572 | 100 | – | – | – | –
2 | [Zn+2] [Zn2+] | 0.03097 | 5 | 0.0079 | 0.008 | 1 | 95
